Reference: the supplement of paper PMC10307832

How the values were obtained:
Assay in all cases: relative viability (nuclei count vs DMSO), 5 days (fraction); higher = more cells survive
[1] = compound: O=C(/C=C/c1ccccc1)NC(NC(=S)Nc1cccc2cccnc12)C(Cl)(Cl)Cl [Salubrinal] + N=C(N)NC(=N)NCCc1ccccc1 [Phenformin] (partner 250 µM)
How it was run: (§1)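 Each reported value is a median over duplicate plates. It expresses relative viability: treated-well nuclei count divided by vehicle-well nuclei count. Lung cancer cell lines in 1536-well plates were dosed by pin tool a day after seeding, alone with one drug or with a fixed anchor-drug dose plus five library-drug doses (not always all listed) in √10 steps, and nuclei were counted after 5 days.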

[2] = compound: Cc1ccc2nc(NCCN)c3ncc(C)n3c2c1 + Cc1nc(NC(=O)N2CCC[C@H]2C(N)=O)sc1-c1ccnc(C(C)(C)C(F)(F)F)c1 [Alpelisib] (partner 2 µM)
How it was run: as §1

[3] = compound: O=C(/C=C/c1ccccc1)NC(NC(=S)Nc1cccc2cccnc12)C(Cl)(Cl)Cl [Salubrinal] + COc1cc2c(Oc3ccc(NC(=O)C4(C(=O)Nc5ccc(F)cc5)CC4)cc3F)ccnc2cc1OCCCN1CCOCC1 [Foretinib] (partner 0.25 µM)
How it was run: as §1

[4] = compound: Cc1ccc2nc(NCCN)c3ncc(C)n3c2c1 + Cc1nc(Nc2ncc(C(=O)Nc3c(C)cccc3Cl)s2)cc(N2CCN(CCO)CC2)n1 [Dasatinib] (partner 0.075 µM)
How it was run: as §1

| Cell Line | relative viability ([1]; first compound 0.08 µM) | relative viability ([1]; first compound 0.253 µM) | relative viability ([1]; first compound 0.8 µM) | relative viability ([1]; first compound 2.53 µM) | relative viability ([1]; first compound 8 µM) | relative viability ([2]; first compound 0.04 µM) | relative viability ([2]; first compound 0.1265 µM) | relative viability ([2]; first compound 0.4 µM) | relative viability ([2]; first compound 1.265 µM) | relative viability ([2]; first compound 4 µM) | relative viability ([3]; first compound 0.08 µM) | relative viability ([3]; first compound 0.253 µM) | relative viability ([3]; first compound 0.8 µM) | relative viability ([3]; first compound 2.53 µM) | relative viability ([3]; first compound 8 µM) | relative viability ([4]; first compound 0.04 µM) | relative viability ([4]; first compound 0.1265 µM) | relative viability ([4]; first compound 0.4 µM) | relative viability ([4]; first compound 1.265 µM) | relative viability ([4]; first compound 4 µM) |
| --- | --- | --- | --- | --- | --- | --- | --- | --- | --- | --- | --- | --- | --- | --- | --- | --- | --- | --- | --- | --- |
| HCC-78 | 0.736 | 0.647 | 0.898 | 0.75 | 0.679 | 0.338 | 0.337 | 0.288 | 0.309 | 0.308 | 0.597 | 0.561 | 0.584 | 0.649 | 0.551 | 0.425 | 0.496 | 0.364 | 0.354 | 0.303 |
| HCC-366 | 0.685 | 0.579 | 0.645 | 0.642 | 0.646 | 0.552 | 0.329 | 0.455 | 0.433 | 0.276 | 0.929 | 0.947 | 0.96 | 0.943 | 0.915 | 0.561 | 0.685 | 0.672 | 0.579 | 0.629 |
| HCC-827 | 0.408 | 0.521 | 0.356 | 0.392 | 0.341 | 0.964 | 1.02 | 0.941 | 0.958 | 0.905 | 1.02 | 1.02 | 1.07 | 0.956 | 1.09 | 0.33 | 0.239 | 0.291 | 0.266 | 0.227 |
| HOP-62 | 0.85 | 0.491 | 0.799 | 0.702 | 0.53 | 0.981 | 0.946 | 0.942 | 0.667 | 0.975 | 1.07 | 0.981 | 1.22 | 1.08 | 1.14 | 0.772 | 0.626 | 0.644 | 0.634 | 0.649 |
| IA-LM |  |  |  |  |  | 0.762 | 0.738 | 0.682 | 0.913 | 0.804 | 1.21 | 0.764 | 1.17 | 1.12 | 0.775 |  |  |  |  |  |
| LC-2-ad | 0.65 | 0.609 | 0.744 | 0.621 | 0.596 | 0.953 | 0.827 | 0.86 | 1 | 0.875 | 0.887 | 0.939 | 0.919 | 0.966 | 0.886 | 0.701 | 0.582 | 0.497 | 0.592 | 0.324 |
| LCLC-97TM1 | 0.388 | 0.413 | 0.435 | 0.462 | 0.488 | 0.321 | 0.241 | 0.225 | 0.183 | 0.194 | 0.908 | 0.885 | 0.862 | 0.901 | 1.03 | 0.941 | 0.816 | 0.85 | 0.911 | 0.732 |
| LCLC-103H | 0.388 | 0.282 | 0.318 | 0.38 | 0.308 | 0.996 | 0.938 | 0.94 | 0.884 | 0.991 | 0.849 | 0.687 | 0.818 | 0.768 | 0.817 | 0.584 | 0.495 | 0.421 | 0.562 | 0.442 |
| LK-2 | 0.502 | 0.466 | 0.675 | 0.3 | 0.395 | 1.07 | 1.08 | 0.935 | 1.05 | 0.864 | 0.983 | 1.18 | 1.6 | 1.24 | 1.09 | 0.251 | 0.223 | 0.27 | 0.229 | 0.268 |
| LOU-NH91 | 0.813 | 0.693 | 0.739 | 0.583 | 0.663 | 0.739 | 0.736 | 0.735 | 0.674 | 0.696 | 0.948 | 1.02 | 0.957 | 0.921 | 0.99 | 0.562 | 0.547 | 0.531 | 0.539 | 0.559 |
| LU99A | 0.921 | 0.916 | 0.992 | 0.906 | 0.896 | 0.59 | 0.539 | 0.576 | 0.609 | 0.464 | 0.92 | 0.802 | 0.841 | 0.703 | 0.789 | 0.58 | 0.605 | 0.622 | 0.54 | 0.544 |
| LXF-289 | 0.542 | 0.451 | 0.555 | 0.504 | 0.502 | 1.1 | 1.01 | 0.984 | 1.06 | 1.03 | 1.12 | 0.909 | 1.01 | 0.963 | 0.925 | 0.262 | 0.231 | 0.247 | 0.245 | 0.275 |
| NCI-H522 | 0.723 | 0.662 | 0.714 | 0.615 | 0.605 |  |  |  |  |  |  |  |  |  |  | 0.882 | 0.966 | 0.827 | 0.806 | 0.842 |
| NCI-H1299 |  |  |  |  |  | 1.03 | 1.1 | 1.05 | 1.08 | 0.993 | 1.12 | 1.07 | 1.14 | 1.05 | 1.05 |  |  |  |  |  |
| NCI-H1623 | 0.522 | 0.564 | 0.61 | 0.578 | 0.551 |  |  |  |  |  | 0.735 | 0.787 | 0.891 | 0.824 | 0.888 | 0.525 | 0.664 | 0.523 | 0.482 | 0.494 |
| NCI-H1650 | 0.497 | 0.462 | 0.423 | 0.423 | 0.422 |  |  |  |  |  | 1.26 | 1.02 | 1.08 | 1.14 | 0.894 | 0.33 | 0.312 | 0.273 | 0.282 | 0.226 |
| NCI-H1703 |  |  |  |  |  | 0.472 | 0.36 | 0.275 | 0.388 | 0.348 | 0.319 | 0.459 | 0.349 | 0.354 | 0.337 |  |  |  |  |  |
| NCI-H1792 | 0.258 |  | 0.368 | 0.239 | 0.262 | 0.696 | 0.678 | 0.615 | 0.527 | 0.661 |  |  |  |  |  | 0.741 | 0.624 | 0.816 | 0.704 | 0.382 |
| NCI-H2342 | 0.497 | 0.564 | 0.618 | 0.635 | 0.572 |  |  |  |  |  | 1.1 | 1.04 | 1.1 | 1.09 | 0.927 | 0.363 | 0.363 | 0.328 | 0.284 | 0.313 |
| SW 900 | 0.555 |  | 0.656 | 0.607 | 0.676 |  |  |  |  |  | 0.78 |  | 0.806 | 0.698 | 0.659 | 0.419 | 0.759 |  | 0.459 | 0.408 |
